“And” between values parts separate entries of the source, which are not always exact repeats. Identical values can stand only once. ± gives the expanded uncertainty stated by the source.
Settings: for surface tension liquid-gas: Drop volume; for viscosity / speed of sound / mass density / vapor or sublimation pressure: Liquid; for viscosity: Capillary tube (Ostwald / Ubbelohde) method; for speed of sound: Frequency=3 MHz, Single path-length method; for mass density: Vibrating tube method; for vapor or sublimation pressure: Ebulliometric method (Recirculating still)

CCc1cccs1 [2-ethylthiophene]
Settings	surface tension liquid-gas [mN/m]	vapor or sublimation pressure [kPa]
278.15 K	32.36 ± 0.3	–
280.65 K	32.11 ± 0.3	–
283.15 K	31.8 ± 0.3	–
285.65 K	31.55 ± 0.3	–
288.15 K	31.24 ± 0.29	–
290.65 K	30.98 ± 0.29	–
292.41 K	–	0.8 ± 0.1
293.15 K	30.66 ± 0.29	–
293.45 K	–	0.84 ± 0.1
295.65 K	30.44 ± 0.29	–
296.81 K	–	1.03 ± 0.1
298.04 K	–	1.145 ± 0.1
298.15 K	30.1 ± 0.29	–
299.11 K	–	1.23 ± 0.1
300.65 K	29.86 ± 0.29	–
302.95 K	–	1.52 ± 0.1
303.15 K	29.54 ± 0.29	–
305.65 K	29.3 ± 0.29	–
308.07 K	–	2.005 ± 0.1
308.15 K	28.96 ± 0.29	–
310.65 K	28.73 ± 0.28	–
312.28 K	–	2.55 ± 0.1
313.15 K	28.41 ± 0.28	–

Settings	mass density	speed of sound [m/s]	viscosity [mPa·s]
278.15 K, 100 kPa	1008.35 ± 0.54 kg/m3	1373.2 ± 1.1	0.9347 ± 0.0087
280.65 K, 100 kPa	1005.86 ± 0.54 kg/m3	1363.4 ± 1.1	0.905 ± 0.0085
283.15 K, 100 kPa	1003.44 ± 0.54 kg/m3 and 1003.37 ± 0.54 kg/m3	1354.2 ± 1.1	0.8766 ± 0.0083
283.15 K, 2000 kPa	1004.84 ± 0.54 kg/m3	–	–
283.15 K, 5000 kPa	1007 ± 0.54 kg/m3	–	–
283.15 K, 7000 kPa	1008.42 ± 0.55 kg/m3	–	–
283.15 K, 10000 kPa	1010.51 ± 0.55 kg/m3	–	–
283.15 K, 15000 kPa	1013.9 ± 0.55 kg/m3	–	–
283.15 K, 20000 kPa	1017.18 ± 0.55 kg/m3	–	–
283.15 K, 25000 kPa	1020.37 ± 0.56 kg/m3	–	–
283.15 K, 30000 kPa	1023.45 ± 0.56 kg/m3	–	–
283.15 K, 35000 kPa	1026.45 ± 0.56 kg/m3	–	–
283.15 K, 40000 kPa	1029.36 ± 0.57 kg/m3	–	–
283.15 K, 45000 kPa	1032.2 ± 0.57 kg/m3	–	–
283.15 K, 50000 kPa	1034.96 ± 0.58 kg/m3	–	–
283.15 K, 55000 kPa	1037.65 ± 0.59 kg/m3	–	–
283.15 K, 60000 kPa	1040.28 ± 0.6 kg/m3	–	–
283.15 K, 65000 kPa	1042.84 ± 0.6 kg/m3	–	–
285.65 K, 100 kPa	1000.87 ± 0.54 kg/m3	1344.7 ± 1.1	0.8498 ± 0.0082
288.15 K, 100 kPa	998.47 ± 0.54 kg/m3 and 998.38 ± 0.54 kg/m3	1334.1 ± 1.1	0.8244 ± 0.008
288.15 K, 2000 kPa	999.91 ± 0.54 kg/m3	–	–
288.15 K, 5000 kPa	1002.13 ± 0.54 kg/m3	–	–
288.15 K, 7000 kPa	1003.59 ± 0.54 kg/m3	–	–
288.15 K, 10000 kPa	1005.73 ± 0.54 kg/m3	–	–
288.15 K, 15000 kPa	1009.2 ± 0.55 kg/m3	–	–
288.15 K, 20000 kPa	1012.57 ± 0.55 kg/m3	–	–
288.15 K, 25000 kPa	1015.82 ± 0.55 kg/m3	–	–
288.15 K, 30000 kPa	1018.97 ± 0.56 kg/m3	–	–
288.15 K, 35000 kPa	1022.04 ± 0.56 kg/m3	–	–
288.15 K, 40000 kPa	1025.03 ± 0.56 kg/m3	–	–
288.15 K, 45000 kPa	1027.9 ± 0.57 kg/m3	–	–
288.15 K, 50000 kPa	1030.72 ± 0.58 kg/m3	–	–
288.15 K, 55000 kPa	1033.47 ± 0.58 kg/m3	–	–
288.15 K, 60000 kPa	1036.14 ± 0.59 kg/m3	–	–
288.15 K, 65000 kPa	1038.73 ± 0.6 kg/m3	–	–
290.65 K, 100 kPa	995.88 ± 0.54 kg/m3	1325 ± 1.1	0.8003 ± 0.0079
293.15 K, 100 kPa	993.45 ± 0.54 kg/m3 and 993.38 ± 0.54 kg/m3	1315.3 ± 1.1	0.7772 ± 0.0078
293.15 K, 2000 kPa	994.92 ± 0.54 kg/m3	–	–
293.15 K, 5000 kPa	997.2 ± 0.54 kg/m3	–	–
293.15 K, 7000 kPa	998.7 ± 0.54 kg/m3	–	–
293.15 K, 10000 kPa	1000.9 ± 0.54 kg/m3	–	–
293.15 K, 15000 kPa	1004.46 ± 0.54 kg/m3	–	–
293.15 K, 20000 kPa	1007.92 ± 0.55 kg/m3	–	–
293.15 K, 25000 kPa	1011.25 ± 0.55 kg/m3	–	–
293.15 K, 30000 kPa	1014.49 ± 0.55 kg/m3	–	–
293.15 K, 35000 kPa	1017.62 ± 0.56 kg/m3	–	–
293.15 K, 40000 kPa	1020.67 ± 0.56 kg/m3	–	–
293.15 K, 45000 kPa	1023.61 ± 0.57 kg/m3	–	–
293.15 K, 50000 kPa	1026.49 ± 0.57 kg/m3	–	–
293.15 K, 55000 kPa	1029.29 ± 0.58 kg/m3	–	–
293.15 K, 60000 kPa	1032.01 ± 0.58 kg/m3	–	–
293.15 K, 65000 kPa	1034.65 ± 0.59 kg/m3	–	–
295.65 K, 100 kPa	990.88 ± 0.54 kg/m3	1305.8 ± 1.1	0.7554 ± 0.0077
298.15 K, 100 kPa	988.39 ± 0.54 kg/m3 and 988.37 ± 0.54 kg/m3	1295.8 ± 1.1	0.7345 ± 0.0076
298.15 K, 2000 kPa	989.91 ± 0.54 kg/m3	–	–
298.15 K, 5000 kPa	992.26 ± 0.54 kg/m3	–	–
298.15 K, 7000 kPa	993.8 ± 0.54 kg/m3	–	–
298.15 K, 10000 kPa	996.05 ± 0.54 kg/m3	–	–
298.15 K, 15000 kPa	999.7 ± 0.54 kg/m3	–	–
298.15 K, 20000 kPa	1003.24 ± 0.54 kg/m3	–	–
298.15 K, 25000 kPa	1006.67 ± 0.55 kg/m3	–	–
298.15 K, 30000 kPa	1009.97 ± 0.55 kg/m3	–	–
298.15 K, 35000 kPa	1013.18 ± 0.55 kg/m3	–	–
298.15 K, 40000 kPa	1016.3 ± 0.56 kg/m3	–	–
298.15 K, 45000 kPa	1019.31 ± 0.56 kg/m3	–	–
298.15 K, 50000 kPa	1022.24 ± 0.57 kg/m3	–	–
298.15 K, 55000 kPa	1025.1 ± 0.57 kg/m3	–	–
298.15 K, 60000 kPa	1027.87 ± 0.58 kg/m3	–	–
298.15 K, 65000 kPa	1030.59 ± 0.58 kg/m3	–	–
300.65 K, 100 kPa	985.87 ± 0.54 kg/m3	1285.4 ± 1.1	0.7148 ± 0.0075
303.15 K, 100 kPa	983.42 ± 0.54 kg/m3 and 983.36 ± 0.54 kg/m3	1276.5 ± 1.1	0.696 ± 0.0074
303.15 K, 2000 kPa	984.97 ± 0.54 kg/m3	–	–
303.15 K, 5000 kPa	987.39 ± 0.54 kg/m3	–	–
303.15 K, 7000 kPa	988.98 ± 0.54 kg/m3	–	–
303.15 K, 10000 kPa	991.3 ± 0.54 kg/m3	–	–
303.15 K, 15000 kPa	995.04 ± 0.54 kg/m3	–	–
303.15 K, 20000 kPa	998.67 ± 0.54 kg/m3	–	–
303.15 K, 25000 kPa	1002.17 ± 0.54 kg/m3	–	–
303.15 K, 30000 kPa	1005.54 ± 0.55 kg/m3	–	–
303.15 K, 35000 kPa	1008.81 ± 0.55 kg/m3	–	–
303.15 K, 40000 kPa	1012 ± 0.55 kg/m3	–	–
303.15 K, 45000 kPa	1015.07 ± 0.56 kg/m3	–	–
303.15 K, 50000 kPa	1018.07 ± 0.56 kg/m3	–	–
303.15 K, 55000 kPa	1020.99 ± 0.57 kg/m3	–	–
303.15 K, 60000 kPa	1023.81 ± 0.57 kg/m3	–	–
303.15 K, 65000 kPa	1026.56 ± 0.58 kg/m3	–	–
305.65 K, 100 kPa	980.85 ± 0.54 kg/m3	1266.7 ± 1.1	0.678 ± 0.0073
308.15 K, 100 kPa	978.38 ± 0.54 kg/m3 and 978.33 ± 0.54 kg/m3	1256.8 ± 1.1	0.6606 ± 0.0072
308.15 K, 2000 kPa	979.99 ± 0.54 kg/m3	–	–
308.15 K, 5000 kPa	982.48 ± 0.54 kg/m3	–	–
308.15 K, 7000 kPa	984.11 ± 0.54 kg/m3	–	–
308.15 K, 10000 kPa	986.49 ± 0.54 kg/m3	–	–
308.15 K, 15000 kPa	990.33 ± 0.54 kg/m3	–	–
308.15 K, 20000 kPa	994.05 ± 0.54 kg/m3	–	–
308.15 K, 25000 kPa	997.63 ± 0.54 kg/m3	–	–
308.15 K, 30000 kPa	1001.09 ± 0.54 kg/m3	–	–
308.15 K, 35000 kPa	1004.45 ± 0.55 kg/m3	–	–
308.15 K, 40000 kPa	1007.68 ± 0.55 kg/m3	–	–
308.15 K, 45000 kPa	1010.84 ± 0.55 kg/m3	–	–
308.15 K, 50000 kPa	1013.88 ± 0.56 kg/m3	–	–
308.15 K, 55000 kPa	1016.86 ± 0.56 kg/m3	–	–
308.15 K, 60000 kPa	1019.74 ± 0.57 kg/m3	–	–
308.15 K, 65000 kPa	1022.56 ± 0.57 kg/m3	–	–
310.65 K, 100 kPa	975.82 ± 0.54 kg/m3	1246.5 ± 1.1	0.6442 ± 0.0071
313.15 K, 100 kPa	–	–	0.6282 ± 0.007

— the NIST ThermoML archive (doi:10.1021/acs.jced.8b00153)
